Measurements published in PubChem BioAssay AID270 (DTP/NCI, 2004).
Records with an inconclusive call do not appear.

System: BDF1 mice, s.c. Lewis lung carcinoma, T/C %
Assay: NCI In Vivo Anticancer Drug Screen. Data for tumor model Lewis Lung Carcinoma (subcutaneous) in B6D2F1 (BDF1) mice
Summary of the method: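 Antitumor effect in vivo is scored from survival or tumor burden, reported as treated relative to vehicle controls.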

O=C1N(Br)C(=O)C(c2ccc(Cl)cc2)(c2ccc(Cl)cc2)N1Br
T/C (endpoint: median survival time, dose: 3.12 mg/kg/injection, schedule: Q01DX009 (ip), vehicle: Klucel (hydroxypropylcellulose) (HPC), higher = longer survival): 100 % of control
T/C (endpoint: median survival time, dose: 6.25 mg/kg/injection, schedule: Q01DX009 (ip), vehicle: Klucel (hydroxypropylcellulose) (HPC), higher = longer survival): 97 % of control
T/C (endpoint: median survival time, dose: 12.5 mg/kg/injection, schedule: Q01DX009 (ip), vehicle: Klucel (hydroxypropylcellulose) (HPC), higher = longer survival): 102 % of control
T/C (endpoint: median survival time, dose: 25.0 mg/kg/injection, schedule: Q01DX009 (ip), vehicle: Klucel (hydroxypropylcellulose) (HPC), higher = longer survival): 96 % of control

Nc1nc(N)nc(N)n1
T/C (endpoint: median survival time, dose: 100.0 mg/kg/injection, schedule: Q01DX009 (ip), vehicle: saline with Tween-80, higher = longer survival): 103 % of control
T/C (endpoint: median survival time, dose: 200.0 mg/kg/injection, schedule: Q01DX009 (ip), vehicle: saline with Tween-80, higher = longer survival): 95 % of control
T/C (endpoint: median survival time, dose: 400.0 mg/kg/injection, schedule: Q01DX009 (ip), vehicle: saline with Tween-80, higher = longer survival): 98 % of control

C=C(C(=O)O)C(=O)O
T/C (endpoint: median survival time, dose: 50.0 mg/kg/injection, schedule: Q01DX009 (ip), vehicle: saline, higher = longer survival): 105 % of control
T/C (endpoint: median survival time, dose: 100.0 mg/kg/injection, schedule: Q01DX009 (ip), vehicle: saline, higher = longer survival): 105 % of control
T/C (endpoint: median survival time, dose: 200.0 mg/kg/injection, schedule: Q01DX009 (ip), vehicle: saline, higher = longer survival): 103 % of control

COc1ccc(-c2oc3ccc(C)cc3c(=O)c2O)cc1
T/C (endpoint: mean tumor weight, dose: 1.9 mg/kg/injection, schedule: Q01DX011 (ip), vehicle: saline, higher = larger tumour): 91 % of control
T/C (endpoint: mean tumor weight, dose: 3.9 mg/kg/injection, schedule: Q01DX011 (ip), vehicle: saline, higher = larger tumour): 100 % of control
T/C (endpoint: mean tumor weight, dose: 7.8 mg/kg/injection, schedule: Q01DX011 (ip), vehicle: saline, higher = larger tumour): 80 % of control
T/C (endpoint: mean tumor weight, dose: 15.6 mg/kg/injection, schedule: Q01DX010 (ip), vehicle: saline, higher = larger tumour): 71 % of control
T/C (endpoint: mean tumor weight, dose: 15.6 mg/kg/injection, schedule: Q01DX011 (ip), vehicle: saline, higher = larger tumour): 67 % of control
T/C (endpoint: mean tumor weight, dose: 31.3 mg/kg/injection, schedule: Q01DX010 (ip), vehicle: saline, higher = larger tumour): 82 % of control
T/C (endpoint: mean tumor weight, dose: 62.5 mg/kg/injection, schedule: Q01DX010 (ip), vehicle: saline, higher = larger tumour): 81 % of control
T/C (endpoint: mean tumor weight, dose: 125.0 mg/kg/injection, schedule: Q01DX010 (ip), vehicle: saline, higher = larger tumour): 84 % of control

COc1ccc(-c2cc(=O)c3ccccc3o2)c(OC)c1OC
T/C (endpoint: mean tumor weight, dose: 50.0 mg/kg/injection, schedule: Q01DX010 (ip), vehicle: saline, higher = larger tumour): 95 % of control
T/C (endpoint: mean tumor weight, dose: 100.0 mg/kg/injection, schedule: Q01DX010 (ip), vehicle: saline, higher = larger tumour): 101 % of control
T/C (endpoint: mean tumor weight, dose: 200.0 mg/kg/injection, schedule: Q01DX010 (ip), vehicle: saline, higher = larger tumour): 83 % of control
T/C (endpoint: mean tumor weight, dose: 400.0 mg/kg/injection, schedule: Q01DX010 (ip), vehicle: saline, higher = larger tumour): 99 % of control

C=C1C(=O)OC2CC(C)C3C4OC4C(O)C3(C)C(O)C12 (stereo not given)
T/C (endpoint: median survival time, dose: 9.38 mg/kg/injection, schedule: Q01DX009 (ip), vehicle: saline with Tween-80, higher = longer survival): 99 % of control
T/C (endpoint: median survival time, dose: 18.75 mg/kg/injection, schedule: Q01DX009 (ip), vehicle: saline with Tween-80, higher = longer survival): 96 % of control
T/C (endpoint: median survival time, dose: 37.5 mg/kg/injection, schedule: Q01DX009 (ip), vehicle: saline with Tween-80, higher = longer survival): 101 % of control

CC(C)C1(C(=O)NNC(=O)CCCc2ccc(N(CCCl)CCCl)cc2)OC2(O)CCCCCN2C1=O (stereo not given)
T/C (endpoint: median survival time, dose: 3.12 mg/kg/injection, schedule: Q04DX003 (ip), vehicle: DMSO, higher = longer survival): 111 % of control
T/C (endpoint: median survival time, dose: 6.25 mg/kg/injection, schedule: Q04DX003 (ip), vehicle: DMSO, higher = longer survival): 116 % of control
T/C (endpoint: median survival time, dose: 12.5 mg/kg/injection, schedule: Q04DX003 (ip), vehicle: DMSO, higher = longer survival): 102 % of control

CCOC(=O)NC1=C(N2CC2)C(=O)C(NC(=O)OCC)=C(N2CC2)C1=O
T/C (endpoint: median survival time, dose: 0.5 mg/kg/injection, schedule: Q01DX009 (ip), vehicle: saline with Tween-80, higher = longer survival): 110 % of control
T/C (endpoint: median survival time, dose: 0.67 mg/kg/injection, schedule: Q01DX005 (ip), vehicle: saline with Tween-80, higher = longer survival): 92 % of control
T/C (endpoint: median survival time, dose: 2.5 mg/kg/injection, schedule: Q01DX005 (ip), vehicle: saline with Tween-80, higher = longer survival): 91 % of control
T/C (endpoint: median survival time, dose: 3.0 mg/kg/injection, schedule: Q01DX009 (ip), vehicle: saline with Tween-80, higher = longer survival): 100 % of control
T/C (endpoint: median survival time, dose: 3.0 mg/kg/injection, schedule: Q04DX003 (ip), vehicle: saline with Tween-80, higher = longer survival): 86 % of control
T/C (endpoint: median survival time, dose: 4.0 mg/kg/injection, schedule: Q04DX003 (ip), vehicle: saline with Tween-80, higher = longer survival): 93 % of control
T/C (endpoint: median survival time, dose: 4.5 mg/kg/injection, schedule: Q01DX009 (ip), vehicle: saline with Tween-80, higher = longer survival): 96 % of control
T/C (endpoint: median survival time, dose: 17.0 mg/kg/injection, schedule: Q01DX001 (ip), vehicle: saline with Tween-80, higher = longer survival): 100 % of control
T/C (endpoint: median survival time, dose: 26.0 mg/kg/injection, schedule: Q01DX001 (ip), vehicle: saline with Tween-80, higher = longer survival): 86 % of control

COC1=C(N)C(=O)c2nc(-c3nc(C(=O)O)c(C)cc3N)ccc2C1=O
T/C (endpoint: median survival time, dose: 0.02 mg/kg/injection, schedule: Q01DX009 (ip), vehicle: Klucel (hydroxypropylcellulose) (HPC), higher = longer survival): 91 % of control
T/C (endpoint: median survival time, dose: 0.05 mg/kg/injection, schedule: Q01DX009 (ip), vehicle: Klucel (hydroxypropylcellulose) (HPC), higher = longer survival): 106 % of control
T/C (endpoint: median survival time, dose: 0.1 mg/kg/injection, schedule: Q01DX009 (ip), vehicle: Klucel (hydroxypropylcellulose) (HPC), higher = longer survival): 103 % of control
